Legend:
Alternaria brassicae = test: In vivo preventive test on Alternaria brassicae (leaf spot on radish); settings: radish plants, preventive spray, 500 ppm, grading 6 days after contamination
Procedure: Example: In Vivo Preventive Test on Alternaria brassicae (Leaf Spot on Radish) […] Radish plants (“Pernod Clair” variety), sown in starter cups on a 50/50 peat soil-pozzolana substrate and grown at 17° C., are treated at the cotyledon stage by spraying with the active ingredient prepared as described above. Plants, used as controls, are treated with the mixture of acetone/tween/DMSO/water not containing the active material. After 24 hours, the plants are contaminated by spraying the cotyledons with an aqueous suspension of Alternaria brassicae spores (50 000 spores per ml). The spores are collected from a 15-day-old culture. […] Grading (% of efficacy) is carried out 6 days after the contamination, in comparison with the control plants. Under these conditions, good (at least 70%) or total protection is observed at a dose of 500 ppm with the following compounds: […]

Botrytis cinerea = test: In vivo preventive test on Botrytis cinerea (grey mould); settings: gherkin plants, preventive spray, 500 ppm, grading 4 to 5 days after contamination
Procedure: Example: In Vivo Preventive Test on Botrytis cinerea (Grey Mould) […] Gherkin plants (“Vert petit de Paris” variety), sown in starter cups on a 50/50 peat soil-pozzolana substrate and grown at 24° C., are treated at the Z11 cotyledon stage by spraying with the active ingredient prepared as described above. Plants, used as controls, are treated with the mixture of acetone/tween/DMSO/water not containing the active material. After 24 hours, the plants are contaminated by spraying the cotyledons with an aqueous suspension of cryopreserved Botrytis cinerea spores (50 000 spores per ml). The spores are suspended in a nutrient solution composed of 10 g/L of PDB, 50 g/L of D-Fructose, 2 g/L of NH4NO3 and 1 g/L of KH2PO4. […] Grading (% of efficacy) is carried out 4 to 5 days after the contamination, in comparison with the control plants. Under these conditions, good (at least 70%) or total protection is observed at a dose of 500 ppm with the following compounds: […]

Pyrenophora teres = test: In vivo preventive test on Pyrenophora teres (net blotch on barley); settings: barley plants, preventive spray, 500 ppm, grading 14 days after contamination
Procedure: Example: In Vivo Preventive Test on Pyrenophora teres (Net Blotch on Barley) […] Barley plants (“Plaisant” variety), sown in starter cups on a 50/50 peat soil-pozzolana substrate and grown at 22° C., are treated at the 1-leaf stage (10 cm height) by spraying with the active ingredient prepared as described above. Plants, used as controls, are treated with the mixture of acetone/tween/DMSO/water not containing the active material. After 24 hours, the plants are contaminated by spraying the leaves with an aqueous suspension of Pyrenophora teres spores (12 000 spores per ml). The spores are collected from a 12-day-old culture. […] Grading (% of efficacy) is carried out 14 days after the contamination, in comparison with the control plants. Under these conditions, good (at least 70%) or total protection is observed at a dose of 500 ppm with the following compounds: […]

Puccinia recondita = test: In vivo preventive test on Puccinia recondita (brown rust on wheat); settings: wheat plants, preventive spray, 500 ppm, grading 12 days after contamination
Procedure: Example: In Vivo Preventive Test on Puccinia recondita (Brown Rust on Wheat) […] Wheat plants (“Scipion” variety), sown in starter cups on a 50/50 peat soil-pozzolana substrate and grown at 22° C., are treated at the 1-leaf stage (10 cm height) by spraying with the active ingredient prepared as described above. Plants, used as controls, are treated with the mixture of acetone/tween/DMSO/water not containing the active material. After 24 hours, the plants are contaminated by spraying the leaves with an aqueous suspension of Puccinia […] spores (100 000 spores per ml). […] Grading (% of efficacy) is carried out 12 days after the contamination, in comparison with the control plants. Under these conditions, good (at least 70%) or total protection is observed at a dose of 500 ppm with the following compounds: […]

Uromyces appendiculatus = test: In vivo preventive test on Uromyces appendiculatus (bean rust); settings: bean plants, preventive spray, 500 ppm, grading 11 days after contamination
Procedure: Example: In Vivo Preventive Test on Uromyces appendiculatus (Bean Rust) […] Bean plants (“Saxa” variety), sown in starter cups on a 50/50 peat soil-pozzolana substrate and grown at 24° C., are treated at the 2-leaf stage (9 cm height) by spraying with the active ingredient prepared as described above. Plants, used as controls, are treated with the mixture of acetone/tween/DMSO/water not containing the active material. After 24 hours, the plants are contaminated by spraying the leaves with an aqueous suspension of Uromyces appendiculatus spores (150 000 spores per ml). […] Grading (% of efficacy) is carried out 11 days after the contamination, in comparison with the control plants. Under these conditions, good (at least 70%) or total protection is observed at a dose of 500 ppm with the following compounds: […]

[1] = logP by HPLC on reversed phase columns (EEC directive 79/831 Annex V.A8); settings: method [a]: LC-MS at pH 2.7, 0.1% formic acid in water / acetonitrile gradient 10% to 95%
Septoria tritici = test: In vivo preventive test on Septoria tritici (leaf spot on wheat); settings: wheat plants, preventive spray, 500 ppm, grading 24 days after contamination
Procedure: Example: In Vivo Preventive Test on Septoria tritici (Leaf Spot on Wheat) […] Wheat plants (“Scipion” variety), sown in starter cups on a 50/50 peat soil-pozzolana substrate and grown at 22° C., are treated at the 1-leaf stage (10 cm height) by spraying with the active ingredient prepared as described above. Plants, used as controls, are treated with the mixture of acetone/tween/DMSO/water not containing the active material. After 24 hours, the plants are contaminated by spraying the leaves with an aqueous suspension of cryopreserved Septoria tritici spores (500 000 spores per ml). […] Grading (% of efficacy) is carried out 24 days after the contamination, in comparison with the control plants. Under these conditions, good (at least 70%) or total protection is observed at a dose of 500 ppm with the following compounds: […]

Sphaerotheca fuliginea = test: In vivo preventive test on Sphaerotheca fuliginea (powdery mildew on cucurbits); settings: gherkin plants, preventive spray, 500 ppm, grading 12 days after contamination
Procedure: Example: In Vivo Preventive Test on Sphaerotheca fuliginea (Powdery Mildew on Cucurbits) […] Gherkin plants (“Vert petit de Paris” variety), sown in starter cups on a 50/50 peat soil-pozzolana substrate and grown at 24° C., are treated at the Z11 cotyledon stage by spraying with the active ingredient prepared as described above. Plants, used as controls, are treated with the mixture of acetone/tween/DMSO/water not containing the active material. After 24 hours, the plants are contaminated by spraying the cotyledons with an aqueous suspension of Sphaerotheca fuliginea spores (100 000 spores per ml). The spores are collected from infected plants. […] Grading (% of efficacy) is carried out 12 days after the contamination, in comparison with the control plants. Under these conditions, good (at least 70%) or total protection is observed at a dose of 500 ppm with the following compounds: […]

SMILES	Eff. % (Alternaria brassicae) [%]	Eff. % (Botrytis cinerea) [%]	Eff. % (Pyrenophora teres) [%]	Eff. % (Puccinia recondita) [%]	Eff. % (Uromyces appendiculatus) [%]	logP [1]	Eff. % (Septoria tritici) [%]	Eff. % (Sphaerotheca fuliginea) [%]
CCON=C(C)c1cccc(-c2cccc(NC(=O)c3c(C(F)F)nn(C)c3F)c2)c1 [Example 44]	100	80	79	94	100	4.29[a]	–	–
CON=C(C)c1cccc(-c2cccc(NC(=O)c3c(C(F)F)nn(C)c3Cl)c2)c1 [Example 45]	–	–	80	94	100	4.04[a]	–	–
CON=C(C)c1cccc(-c2cccc(NC(=O)c3c(C(F)F)nn(C)c3F)c2)c1 [Example 42]	–	–	70	89	97	3.85[a]	–	–
CON=Cc1ccc(-c2cc(F)ccc2NC(=O)c2c(C(F)F)nn(C)c2Cl)cc1 [Example 30]	97	–	93	100	100	3.66[a]	97	100
C#CCON=C(C)c1ccc(-c2cccc(NC(=O)c3c(C(F)F)nn(C)c3Cl)c2)cc1 [Example 35]	–	–	–	–	98	4.01[a]	75	–
CC(=NOC(C)C)c1ccc(-c2ccccc2NC(=O)c2c(C(F)F)nn(C)c2Cl)cc1 [Example 1]	–	–	–	98	100	5.03[a]	75	100
CON=Cc1ccc(-c2ccccc2NC(=O)c2c(C(F)F)nn(C)c2Cl)c(Cl)c1 [Example 10]	–	–	–	97	100	4.05[a]	–	100
CCON=Cc1ccc(-c2cc(F)ccc2NC(=O)c2c(C(F)F)nn(C)c2Cl)cc1 [Example 19]	88	70	80	97	100	4.11[a]	–	100
CCON=C(C)c1ccc(-c2ccccc2NC(=O)c2c(C(F)F)nn(C)c2Cl)cc1 [Example 34]	–	–	80	89	100	4.49[a]	–	–
CCON=C(C)c1cccc(-c2cccc(NC(=O)c3c(C(F)F)nn(C)c3Cl)c2)c1 [Example 43]	–	–	80	89	100	4.49[a]	–	–
CCON=C(C)c1ccc(-c2ccccc2NC(=O)c2c(C(F)F)nn(C)c2F)cc1 [Example 16]	100	80	79	94	100	4.29[a]	–	–
CCON=C(C)c1ccc(-c2ccccc2NC(=O)c2c(C(F)F)nn(C)c2Cl)cc1 [Example 2]	–	–	–	98	100	4.58[a]	–	100
CCON=Cc1ccc(-c2ccccc2NC(=O)c2c(C(F)F)nn(C)c2Cl)c(Cl)c1 [Example 36]	81	95	90	97	94	4.49[a]	–	100
CON=Cc1ccc(-c2ccccc2NC(=O)c2c(C(F)F)nn(C)c2Cl)cc1F [Example 33]	88	95	96	100	99	3.75[a]	–	100
CON=Cc1ccc(-c2ccccc2NC(=O)c2c(C(F)F)nn(C)c2Cl)cc1Cl [Example 38]	94	–	96	97	100	4.19[a]	–	100
CON=Cc1ccc(-c2ccccc2NC(=O)c2c(C(F)F)nn(C)c2Cl)cc1C(F)(F)F [Example 24]	92	–	97	100	100	4.25[a]	92	100
CCON=Cc1c(F)cc(-c2ccccc2NC(=O)c2c(C(F)F)nn(C)c2Cl)cc1F [Example 14]	100	70	100	100	100	4.04[a]	–	100
CCON=Cc1ccc(-c2ccccc2NC(=O)c2c(C(F)F)nn(C)c2Cl)c(F)c1 [Example 37]	88	100	100	97	97	3.65[a]	–	100
CCON=Cc1ccc(-c2ccccc2NC(=O)c2c(C(F)F)nn(C)c2Cl)cc1Cl [Example 17]	98	–	96	97	100	4.64[a]	–	100
CCON=Cc1ccc(-c2ccccc2NC(=O)c2c(C(F)F)nn(C)c2Cl)cc1C(F)(F)F [Example 26]	–	–	90	97	100	4.65[a]	–	100
CCON=C(C)c1ccc(-c2ccccc2NC(=O)c2c(C(F)F)nn(C)c2F)cc1 [Example 11]	97	–	96	94	100	4.24[a]	–	100

— patent publication US9765034B2, “5-halogenopyrazole biphenylcarboxamides” (BAYER CROPSCIENCE AG, priority 2012, dated 2017)
